Source: EP0393604B1, “6,11-Dihydro-5H-pyrido(2,3-b)(1,5,)benzodiazepin-5-ones and thiones and their use in the prevention or treatment of AIDS” (priority 1989, dated 1990)
Where two headings read alike, the source gives them in different places.

Target: T1, HIV-1 RT (Human immunodeficiency virus type 1 group M subtype B, UniProt P03367)
T1 construct: Reverse transcriptase enzyme from the LAV strain of Human Immunodeficiency Virus (HIV-1) (1) was isolated from the bacterial strain JM109; made in house; host or cells: E. coli JM109, clone pBRTprt1+ in vector pIBI21, lac promoter, IPTG induction
Assay: Reverse Transcriptase (RT) Assay: inhibition of RNA-dependent DNA polymerase activity
Assay type: biochemical
Conditions: for inhibition at 10 µg/mL: read-out: RT Inhibition % @ 10µg/ml
Source text: Utilizing the Reverse Transcriptase (RT) Assay descibed below, compounds can be tested for their ability to inhibit the RNA-dependent DNA polymerase activity of HIV-1 RT. Certain specific compounds of formula I described in the Examples which appear below, were so tested. The above-described compounds of formula IA were also so tested.
Among the enzymes for which Human Immunodeficiency Virus (HIV-1) encodes is a reverse transcriptase (1), so-named because it transcribes a DNA copy from an RNA template. This activity can be quantitatively measured in a cell-free enzyme assay which has been previously described (2), and is based upon the observation that reverse transcriptase is able to use a synthetic template [poly r(C) primed with oligo d(G)] to transcribe a radio-labelled, acid-precipitable DNA strand utilizing ^3H-dGTP as a substrate.
Reverse transcriptase enzyme from the LAV strain of Human Immunodeficiency Virus (HIV-1) (1) was isolated from the bacterial strain JM109 (3) expressing the DNA clone pBRTprt1+ (2) which is under the control of the lac promoter in the expression vector pIBI21 (4). An overnight culture grown in 2XYT medium (37°C, 225 rpm) (5) supplemented with 100 µg/ml ampicillin for positive selection is inoculated at a 1:40 dilution into M9 medium supplemented with 10µg/ml thiamine, 0.5% casamino acids, and 50 µg/ml ampicillin (5). The culture is incubated (37°C, 225 rpm) until it reaches an OD540 of 0.3-0.4. At that time the repressor inhibitor IPTG (isopropyl b-D-thiogalactopyranoside) is added to 0.5mM and the mixture is incubated for 2 additional hours. Bacteria are pelleted, resuspended in a 50mM Tris, 0.6mM EDTA, 0.375M NaCl buffer and digested by the addition of lysozyme (1mg/ml) for 30 minutes on ice. The cells are lysed by the addition of 0.2% NP-40 and brought to 1M NaCl.
After removal of the insoluble debris by centrifugation, the protein is precipitated by the addition of 3 volumes of water-saturated ammonium sulfate. The enzyme is pelleted, resuspended in RT buffer (50mM Tris pH 7.5. 1mM EDTA, 5mM DTT, 0.1% NP-40, 0.1M NaCl, and 50% glycerol), and stored at -70°C for further use.
The 2X concentrated stock reaction mixture is aliquoted and stored at -20°C. The mixture is stable and thawed for use in each assay. This enzyme assay has been adapted to a 96 well microtiter plate system, and has been previously described (6). Tris buffer (50 mM, pH 7.4), vehicle (solvent diluted to match the compound dilution), or compounds in vehicle are dispensed into 96-well microtiter plates (10µl/well: 3 wells/compound). The HIV-1 RT enzyme is thawed and diluted in 50mM Tris pH 7.4 so that fifteen µl of diluted enzyme contain 0.001 Unit (one unit is that amount of enzyme to transform 1 micromole of substrate per minute at 25°C) and 15µl are dispensed per well. Twenty µl of 0.12 - 0.5M EDTA are added to the first three wells of the microtiter plate. EDTA chelates the Mg^++ present and prevents reverse transcription. This group serves as background polymerization which is subtracted from all other groups. Twenty-five ul of the 2X reaction mixture are added to all wells and the assay is allowed to incubate at room temperature for 60 minutes. The assay is terminated by precipitating the DNA in each well with 50µl of trichloracetic acid (TCA) (10% w/v) in sodium pyrophosphate (1% w/v). The microtiter plate is incubated for 15 minutes at 4°C and the precipitate is fixed onto #30 glass fiber paper (Schleicher & Schuell) using a Skatron semi-automatic harvester. The filters are then washed with additional TCA (5%) containing sodium pyrophosphate (1%), rinsed with aqueous ethanol (70%), dried, and transferred to scintillation vials (6). Each vial receives 2 mls of scintillation cocktail and is counted in a Beckman beta counter. […]

[1] = 10µg/ml, Table I, compounds of formula I
[2] = 10µg/ml, Table II, known compounds of formula IA

| inhibition at 10 µg/mL [1] | SMILES | further results |
| --- | --- | --- |
| 96% | CCN1C(=O)c2cccnc2N(CC)c2ccccc21 [Example 21, 6,11-Diethyl-6,11-dihydro-5H-pyrido[2,3-b][1,5]benzodiazepin-5-one] |  |
| 73% | CN1C(=O)c2cccnc2N(Cc2ccccc2)c2ccccc21 [Example 25, 6,11-Dihydro-11-benzyl-6-methyl-5H-pyrido[2,3-b][1,5]benzodiazepin-5-one] |  |
| 29% | CC(=O)N1c2ccccc2N(C)C(=O)c2cccnc21 [Example 18, 11-Acetyl-6,11-dihydro-6-methyl-5H-pyrido[2,3-b][1,5]benzodiazepin-5-one] |  |
| 50% | CN1C(=O)c2cccnc2N(CCO)c2ccccc21 [Example 7, 6,11-Dihydro-11-(2-hydroxyethyl)-6-methyl-5H-pyrido[2,3-b][1,5]benzodiazepin-5-one] |  |
| 64% | CCOC(=O)CN1c2ccccc2N(C)C(=O)c2cccnc21 [Example 27, 6,11-Dihydro-11-(ethoxycarbonyl)methyl-6-methyl-5H-pyrido[2,3-b][1,5] benzodiazepin-5-one] |  |
| 68% | CN1C(=O)c2cccnc2N(C)c2ccccc21 [Example 10, 6,11-Dihydro-6,11-dimethyl-5H-pyrido[2,3-b][1,5]benzodiazepin-5-one] |  |
| 75% | CCCCN1C(=O)c2cccnc2N(C)c2ccccc21 [Example 14, 6-Butyl-6,11-dihydro-11-methyl-5H-pyrido[2,3-b][1,5] benzodiazepin-5-one] |  |
| 91% | CC(C)N1C(=O)c2cccnc2N(C)c2ccccc21 [Example 13, 6,11-Dihydro-11-methyl-6-methylethyl-5H-pyrido[2,3-b][1,5]benzodiazepin-5-one] |  |
| 100% | CCN1c2ccccc2NC(=O)c2cccnc21 [Example 23, 6,11-Dihydro-11-ethyl-5H-pyrido[2,3-b][1,5]benzodiazepin-5-one] |  |
| 37% | CN1c2ccccc2NC(=O)c2cccnc21 [Example 1, 6,11-Dihydro-11-methyl-5H-pyrido[2,3-b][1,5]benzodiazepin-5-one] |  |
| 85% | CCN1c2ccccc2N(CF)C(=O)c2cccnc21 [Example 34, 6,11-Dihydro-11-ethyl-6-fluoromethyl-5H-pyrido-[2,3-b][1,5]benzodiazepin-5-one] |  |
| 88% | CCN1C(=O)c2cccnc2N(C)c2ccccc21 [Example 11, 6,11-Dihydro-6-ethyl-11-methyl-5H-pyrido[2,3-b][1,5]benzodiazepin-5-one] |  |
| 94% | CCN1c2ccc(C(=O)OC)cc2N(C)C(=O)c2cccnc21 [Example 30, 6,11-Dihydro-8-methoxycarbonyl-11-ethyl-6-methyl-5H-pyrido[2,3-b][1,5] benzodiazepin-5-one] |  |
| 89% | CCCN1C(=O)c2cccnc2N(C)c2ccccc21 [Example 12, 6,11-Dihydro-11-methyl-6-propyl-5H-pyrido[2,3-b][1,5]benzodiazepin-5-one] |  |
| 92% | CCCN1c2ccccc2N(C)C(=O)c2cccnc21 [Example 3, 6,11-Dihydro-6-methyl-11-propyl-5H-pyrido[2,3-b][1,5]benzodiazepin-5-one] |  |
| 46% | CCCCN1c2ccccc2N(C)C(=O)c2cccnc21 [Example 6, 11-Butyl-6,11-dihydro-6-methyl-5H-pyrido[2,3-b][1,5]-benzodiazepin-5-one] |  |

Continued, molecule first:

| SMILES | inhibition at 10 µg/mL [1] | further results |
| --- | --- | --- |
| CCN1c2ccccc2NC(=S)c2cccnc21 [Example 24, 6,11-Dihydro-11-ethyl-5H-pyrido[2,3-b][1,5]benzodiazepin-5-thione] |  | inhibition at 10 µg/mL: 100% |
| Cc1cc(C)c2c(n1)N(C)c1cc(C)c(C)cc1N(C)C2=O [Example 16, 6,11-Dihydro-2,4,6,8,9,11-hexamethyl-5H-pyrido[2,3-b][1,5]benzodiazepin-5-one] | 44% |  |
| CC(C)CN1C(=O)c2cccnc2Nc2ccccc21 [Formula IA g, 6-isobutyl-6,11-dihydro-5H-pyrido[2,3-b][1,5]benzodiazepin-5-one] |  | inhibition at 10 µg/mL [2]: 33% |
| CCN1C(=O)c2cccnc2Nc2cccc(C)c21 [Example 31, 6,11-Dihydro-6-ethyl-7-methyl-5H-pyrido[2,3-b][1,5]benzodiazepin-5-one] | 92% |  |
| Cc1cc2c(cc1C)N(C)C(=O)c1cccnc1N2 [Example 28, 6,11-Dihydro-6,8,9-trimethyl-5H-pyrido[2,3-b][1,5]benzodiazepin-5-one] | 65% |  |
| CN1C(=O)c2cccnc2N(CCF)c2ccccc21 [Example 33, 6,11-Dihydro-11-(2-fluoroethyl)-6-methyl-5H-pyrido[2,3-6][1,5]benzodiazepin-5-one] |  | inhibition at 10 µg/mL: 97% |
| CCN1c2cc(C)c(C)cc2N(C)C(=O)c2cccnc21 [Example 29, 6,11-Dihydro-11-ethyl-6,8,9-trimethyl-5H-pyrido[2,3-b][1,5]benzodiazepin-5-one] | 99% |  |
| CCN1C(=O)c2cccnc2Nc2ccccc21 [Formula IA d, 6-ethy-6,11-dihydro-5H-pyrido[2,3-b][1,5]benzodiazepin-5-one] |  | inhibition at 10 µg/mL [2]: 69% |
| CN1C(=O)c2cccnc2N(CC(=O)OC(C)(C)C)c2ccccc21 [Example 26, 6,11-Dihydro-11-(t-butoxycarbonyl)methyl-6-methyl-5H-pyrido[2,3-b][1,5] benzodiazepin-5-one] | 81% |  |
| CSCN1C(=O)c2cccnc2N(CSC)c2cc(Cl)ccc21 [Example 20, 6,11-bis-(methylthiomethyl)-9-chloro-6,11-dihydro-5H-pyrido-[2,3-b][1,5]benzodiazepin-5-one] | 69% |  |
| Cc1cccc2c1NC(=O)c1cccnc1N2 [Example 32, 6,11-Dihydro-7-methyl-5H-pyrido[2,3-b][1,5]benzodiazepin-5-one] | 51% |  |
| Cc1cc2c(cc1C)N(C)C(=O)c1cccnc1N2 [Formula IA e, 6,8,9-trimethyl-6,11-dihydro-5H-pyrido[2,3-b][1,5]benzodiazepin-5-one] |  | RT Inhibition % @ 10µg/ml [2]: 65% |
| CCN1C(=O)c2cccnc2Nc2cc(C)c(C)cc21 [Formula IA f, 6-ethyl-8,9-dimethyl-6,11-dihydro-5H-pyrido[2,3-b][1,5]benzodiazepin-5-one] |  | inhibition at 10 µg/mL [2]: 95% |
| O=C1Nc2ccccc2Nc2ncccc21 [Formula IA c, 6,11-dihydro-5H-pyrido[2,3-b][1,5]benzodiazepin-5-one] |  | inhibition at 10 µg/mL [2]: 22% |
| CN1C(=O)c2cccnc2Nc2ccccc21 [Formula IA b, 6-methyl-6,11-dihydro-5H-pyrido[2,3-b][1,5]benzodiazepin-5-one] |  | inhibition at 10 µg/mL [2]: 43% |
| CCN1C(=O)c2cccnc2Nc2cc(C)ccc21 [Formula IA h, 6-ethyl-9-methyl-6,11-dihydro-5H-pyrido[2,3-b][1,5]benzodiazepin-5-one] |  | inhibition at 10 µg/mL [2]: 78% |
| Cc1ccc2c(c1)N(C)C(=O)c1c(C)cc(C)nc1N2 [Formula IA a, 2,4,6,8-tetramethyl-6,11-dihydro-5H-pyrido[2,3-b][1,5]benzodiazepin-5-one] |  | inhibition at 10 µg/mL [2]: 58% |
